Measured values reported in patent US12534474B2, “Dihydrofuropyridine derivatives as rho-kinase inhibitors” (CHIESI FARMACEUTICI S.P.A., priority 2020, dated 2026).
pKi: −log10 of the molar value.

How the values were obtained:
Format in all cases: biochemical
[1] = target: T1, ROCK2 (Homo sapiens, UniProt O75116); assay: In vitro Rho kinase inhibitory activity assay, ADP-Glo, Method A (ATP 10 μM); conditions: read-out: Method A ROCK 2 (Ki)
Method: (§1) In Vitro Inhibitory Activity Assay Description (Method A)
(§2) The effectiveness of compounds of the present invention to inhibit Rho kinase activity can be determined in a 10 μL assay containing 40 mM Tris pH7.5, 20 mM MgCl2 0.1 mg/mL BSA, 50 μM DTT and 2.5 μM peptide substrate (Myelin Basic Protein) using an ADP-Glo kit (Promega). Compounds were dissolved in DMSO such that the final concentration of DMSO was 1% in the assay. All reactions/incubations are performed at 25° C. Compound (2 μL) and either Rho kinase 1 or 2 (4 μL) were mixed and incubated for 30 min. Reactions were initiated by addition of ATP (4 μL) such that the final concentration of ATP in the assay was 10 μM. After a 1 hour incubation 10 μL of ADP-Glo Reagent was added and after a further 45 minute incubation 20 μL of Kinase Detection Buffer was added and the mixture incubated for a further 30 minutes. The luminescent signal was measured on a luminometer. […] Compounds were tested in dose-response format and the inhibition of kinase activity was calculated at each concentration of compound. To determine the IC50 (concentration of compound required to inhibit 50% of the enzyme activity) data were fit to a plot of % inhibition vs Log10 compound concentration using a sigmoidal fit with a variable slope and fixing the maximum to 100% and the minimum to 0%. To determine the Ki values the Cheng-Prusoff equation was utilized (Ki=IC50/(1+[S]/Km).

[2] = target: T2, ROCK1 (Homo sapiens, UniProt Q13464); assay: as above; conditions: read-out: Method A ROCK 1 (Ki)
T2 sequence (Q13464 whole entry): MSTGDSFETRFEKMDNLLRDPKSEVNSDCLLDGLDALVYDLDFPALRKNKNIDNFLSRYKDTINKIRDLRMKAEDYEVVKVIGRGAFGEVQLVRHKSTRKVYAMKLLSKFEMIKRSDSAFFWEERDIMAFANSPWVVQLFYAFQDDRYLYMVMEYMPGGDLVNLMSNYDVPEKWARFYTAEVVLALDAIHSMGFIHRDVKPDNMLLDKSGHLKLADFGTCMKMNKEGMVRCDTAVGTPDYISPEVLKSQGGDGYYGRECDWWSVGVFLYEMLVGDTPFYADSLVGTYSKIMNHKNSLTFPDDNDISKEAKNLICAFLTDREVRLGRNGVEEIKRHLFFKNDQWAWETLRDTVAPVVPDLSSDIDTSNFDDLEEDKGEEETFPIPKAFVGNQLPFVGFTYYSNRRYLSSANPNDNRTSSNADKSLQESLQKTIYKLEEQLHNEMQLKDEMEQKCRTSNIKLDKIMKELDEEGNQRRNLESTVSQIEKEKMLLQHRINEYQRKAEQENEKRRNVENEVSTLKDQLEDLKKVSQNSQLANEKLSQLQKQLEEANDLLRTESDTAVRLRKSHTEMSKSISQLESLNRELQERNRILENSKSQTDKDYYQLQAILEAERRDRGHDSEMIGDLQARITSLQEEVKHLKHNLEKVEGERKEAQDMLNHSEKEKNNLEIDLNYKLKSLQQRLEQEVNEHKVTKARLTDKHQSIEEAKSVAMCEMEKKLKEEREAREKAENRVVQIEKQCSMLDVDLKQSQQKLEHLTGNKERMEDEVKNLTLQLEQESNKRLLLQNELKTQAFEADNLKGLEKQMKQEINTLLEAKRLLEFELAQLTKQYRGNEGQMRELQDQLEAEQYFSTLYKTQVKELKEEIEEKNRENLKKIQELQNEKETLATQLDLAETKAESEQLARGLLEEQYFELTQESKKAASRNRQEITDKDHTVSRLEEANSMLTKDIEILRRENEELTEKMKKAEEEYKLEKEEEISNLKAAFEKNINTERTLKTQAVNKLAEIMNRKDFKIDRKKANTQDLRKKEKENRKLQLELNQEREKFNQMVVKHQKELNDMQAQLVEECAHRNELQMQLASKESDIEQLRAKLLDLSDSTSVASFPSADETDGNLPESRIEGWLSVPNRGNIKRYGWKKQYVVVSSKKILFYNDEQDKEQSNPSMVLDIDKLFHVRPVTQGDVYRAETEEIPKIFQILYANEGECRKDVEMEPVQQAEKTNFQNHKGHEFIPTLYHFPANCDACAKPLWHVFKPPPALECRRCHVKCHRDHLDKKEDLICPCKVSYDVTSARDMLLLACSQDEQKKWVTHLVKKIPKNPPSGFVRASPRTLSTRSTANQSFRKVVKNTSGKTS
Method: as §1, §2

[3] = target: T1, ROCK2; assay: In vitro Rho kinase inhibitory activity assay, ADP-Glo, Method B (ATP 200 μM); conditions: read-out: Method B ROCK 2 (Ki)
Method: (§3) In Vitro Inhibitory Activity Assay Description (Method B)
as §2, with “(2 ul)” for “(2 μL)”, “was 200” for “was 10”, “20 ul” for “20 μL”, “vs Log 10” for “vs Log10”

[4] = target: T2, ROCK1; assay: as above; conditions: read-out: Method B ROCK 1 (Ki)
Method: as §3
as §2, with “(2 ul)” for “(2 μL)”, “was 200” for “was 10”, “20 ul” for “20 μL”, “vs Log 10” for “vs Log10”

[5] = target: PKA (Homo sapiens, UniProt P17612); assay: In vitro inhibitory activity assay for PKA, ADP-Glo, reported as selectivity ratio vs ROCK2; conditions: Ki for PKA divided by Ki of ROCK2 (Method B)
Method: In Vitro Inhibitory Activity Assay Description for PKA
The effectiveness of compounds of the present invention to inhibit PKA activity can be determined in a 10 μL assay containing 40 mM Tris pH7.5, 20 mM MgCl2 0.1 mg/mL BSA, 50 μM DTT and 260 μM peptide substrate (kemptide) using an ADP-Glo kit (Promega). Compounds were dissolved in DMSO such that the final concentration of DMSO was 1% in the assay. All reactions/incubations are performed at 25° C. Compound and PKA enzyme (6 μL) were mixed and incubated for 30 min. Reactions were initiated by addition of ATP (4 μL) such that the final concentration of ATP in the assay was 10 μM. After a 30 minute incubation 10 μL of ADP-Glo Reagent was added and after a further 1 hour incubation 20 μL of Kinase Detection Buffer was added and the mixture incubated for a further 45 minutes. The luminescent signal was measured on a luminometer. […] Compounds were tested in dose-response format and the inhibition of kinase activity was calculated at each concentration of compound. To determine the IC50 (concentration of compound required to inhibit 50% of the enzyme activity) data were fit to a plot of % inhibition vs Log10 compound concentration using a sigmoidal fit with a variable slope and fixing the maximum to 100% and the minimum to 0%. To determine the Ki values the Cheng-Prusoff equation was utilized (Ki=IC50/(1+[S]/Km).
In vitro inhibitory activities for PKA were reported as selectivity ratio vs. ROCK2. Selectivity ratio PKA/ROCK2 was calculated by dividing the Ki value for PKA by Ki value of ROCK2 (Method B) and reported into table 1.

T1 sequence (O75116 whole entry): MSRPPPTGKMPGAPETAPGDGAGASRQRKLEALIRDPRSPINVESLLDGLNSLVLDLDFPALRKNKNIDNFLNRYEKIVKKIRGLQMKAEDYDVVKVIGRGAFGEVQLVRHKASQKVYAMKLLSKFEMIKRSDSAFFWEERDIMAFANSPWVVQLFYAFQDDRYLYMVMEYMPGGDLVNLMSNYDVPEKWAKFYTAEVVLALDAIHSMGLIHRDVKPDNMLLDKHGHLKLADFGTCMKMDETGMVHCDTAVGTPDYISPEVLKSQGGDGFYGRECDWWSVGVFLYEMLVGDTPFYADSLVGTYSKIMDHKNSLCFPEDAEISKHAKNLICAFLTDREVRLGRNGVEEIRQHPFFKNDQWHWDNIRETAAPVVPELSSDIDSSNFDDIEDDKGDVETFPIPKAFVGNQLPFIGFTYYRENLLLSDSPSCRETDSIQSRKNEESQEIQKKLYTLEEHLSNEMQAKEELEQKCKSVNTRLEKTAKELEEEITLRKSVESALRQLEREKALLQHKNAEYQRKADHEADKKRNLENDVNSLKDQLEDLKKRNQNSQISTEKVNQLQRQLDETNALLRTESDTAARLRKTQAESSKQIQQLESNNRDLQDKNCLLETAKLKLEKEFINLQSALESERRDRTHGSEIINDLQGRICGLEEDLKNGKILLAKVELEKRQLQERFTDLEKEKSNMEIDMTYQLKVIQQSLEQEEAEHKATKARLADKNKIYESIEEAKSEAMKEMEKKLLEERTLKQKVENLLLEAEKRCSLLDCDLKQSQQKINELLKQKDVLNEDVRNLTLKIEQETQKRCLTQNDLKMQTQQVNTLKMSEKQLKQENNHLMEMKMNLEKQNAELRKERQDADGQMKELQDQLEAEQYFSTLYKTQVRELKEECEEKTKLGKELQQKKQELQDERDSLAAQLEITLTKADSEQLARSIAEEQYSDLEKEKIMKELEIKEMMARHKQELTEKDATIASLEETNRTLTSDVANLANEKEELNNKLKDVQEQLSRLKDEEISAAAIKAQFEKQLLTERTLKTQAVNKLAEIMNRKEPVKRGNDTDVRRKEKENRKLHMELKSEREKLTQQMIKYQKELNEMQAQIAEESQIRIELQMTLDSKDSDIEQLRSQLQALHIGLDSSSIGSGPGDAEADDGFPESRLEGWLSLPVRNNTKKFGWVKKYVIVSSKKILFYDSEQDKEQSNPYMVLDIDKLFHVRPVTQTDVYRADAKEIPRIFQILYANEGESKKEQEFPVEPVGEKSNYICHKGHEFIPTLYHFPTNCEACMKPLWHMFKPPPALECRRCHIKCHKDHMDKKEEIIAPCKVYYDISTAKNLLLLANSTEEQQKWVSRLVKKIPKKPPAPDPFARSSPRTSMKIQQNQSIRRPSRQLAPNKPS

SMILES | pKi [1] | pKi [2] | pKi [3] | pKi [4] | Ratio (PKA/ROCK2) [5]
CNC(=O)c1cccc(CNc2ncc(-c3ccncc3)c3c2CCO3)c1 [Example 20, N-methyl-3-(((7-(pyridin-4-yl)-2,3-dihydrofuro[3,2-c]pyridin-4-yl)amino)methyl)benzamide] | 7.52 to 8.52 | 7.52 to 8.52 | 7.52 to 8.52 | 7.52 to 8.52 | *** (ratio≥10)
CN1CCn2nc(NC(=O)c3cccc(CNc4ncc(-c5ccncc5)c5c4CCO5)c3)cc2C1 [Example 21] | ≥ 8.52 | ≥ 8.52 | ≥ 8.52 | ≥ 8.52 | 
O=C(Nc1cccc(CNc2ncc(-c3ccncc3)c3c2CCO3)c1)c1nc2c(s1)CN(C1COC1)CC2 [Example 38, 5-(oxetan-3-yl)-N-(3-(((7-(pyridin-4-yl)-2,3-dihydrofuro[3,2-c]pyridin-4-yl)amino)methyl)phenyl)-4,5,6,7-tetrahydrothiazolo[5,4-c]pyridine-2-carboxamide] | ≥ 8.52 | ≥ 8.52 |  |  | 
Cc1cc(-c2cnc(NCc3cccc(C(=O)Nc4nc5c(s4)CN(C)CC5)c3)c3c2OCC3)ccn1 [Example 47, N-(5-Methyl-4,5,6,7-tetrahydrothiazolo[5,4-c]pyridin-2-yl)-3-(((7-(2-methylpyridin-4-yl)-2,3-dihydrofuro[3,2-c]pyridin-4-yl)amino)methyl)benzamide] | 7.52 to 8.52 | 7.52 to 8.52 |  |  | 
Cc1cnccc1-c1cnc(NCc2cccc(C(=O)Nc3nc4c(s3)CN(C)CC4)c2)c2c1OCC2 [Example 48, N-(5-methyl-4,5,6,7-tetrahydrothiazolo[5,4-c]pyridin-2-yl)-3-(((7-(3-methylpyridin-4-yl)-2,3-dihydrofuro[3,2-c]pyridin-4-yl)amino)methyl)benzamide] | ≥ 8.52 | ≥ 8.52 |  |  | 
CN1CCc2nc(NC(=O)c3cccc(CNc4ncc(-c5ccnc(F)c5)c5c4CCO5)c3)sc2C1 [Example 50, 3-(((7-(2-fluoropyridin-4-yl)-2,3-dihydrofuro[3,2-c]pyridin-4-yl)amino)methyl)-N-(5-methyl-4,5,6,7-tetrahydrothiazolo[5,4-c]pyridin-2-yl)benzamide] | ≥ 8.52 | ≥ 8.52 |  |  | 
CN1CCc2nc(NC(=O)c3ccnc(CNc4ncc(-c5ccncc5)c5c4CCO5)c3)sc2C1 [Example 51, N-(5-methyl-4,5,6,7-tetrahydrothiazolo[5,4-c]pyridin-2-yl)-2-(((7-(pyridin-4-yl)-2,3-dihydrofuro[3,2-c]pyridin-4-yl)amino)methyl)isonicotinamide] | ≥ 8.52 | 7.52 to 8.52 |  |  | 
CN1CCc2nc(NC(=O)c3cccc(CNc4ncc(-c5ccncc5)c5c4CCO5)n3)sc2C1 [Example 52, N-(5-methyl-4,5,6,7-tetrahydrothiazolo[5,4-c]pyridin-2-yl)-6-(((7-(pyridin-4-yl)-2,3-dihydrofuro[3,2-c]pyridin-4-yl)amino)methyl)picolinamide] | ≥ 8.52 | 7.52 to 8.52 |  |  | 
CC(=O)Nc1cccc(CNc2ncc(-c3ccncc3)c3c2CC(C)O3)c1 (stereo not shown) [Example 55, N-(3-(((2-methyl-7-(pyridin-4-yl)-2,3-dihydrofuro[3,2-c]pyridin-4-yl)amino)methyl)phenyl)acetamide] | 7.52 to 8.52 | 7.52 to 8.52 |  |  | 

Second part, the molecule after the results:

pKi [1] | pKi [2] | pKi [3] | pKi [4] | Ratio (PKA/ROCK2) [5] | SMILES
≥ 8.52 | ≥ 8.52 | ≥ 8.52 | ≥ 8.52 |  | O=C(Nc1ncc(CN2CCCC2)s1)c1cccc(CNc2ncc(-c3ccncc3)c3c2CCO3)c1 [Example 1, 3-(((7-(Pyridin-4-yl)-2,3-dihydrofuro[3,2-c]pyridin-4-yl)amino)methyl)-N-(5-(pyrrolidin-1-ylmethyl)thiazol-2-yl)benzamide]
≥ 8.52 | ≥ 8.52 | ≥ 8.52 | ≥ 8.52 | *** (ratio≥10) | CN1CCC(CCNC(=O)c2cccc(CNc3ncc(-c4ccncc4)c4c3CCO4)c2)CC1 [Example 22, N-(2-(1-methylpiperidin-4-yl)ethyl)-3-(((7-(pyridin-4-yl)-2,3-dihydrofuro[3,2-c]pyridin-4-yl)amino)methyl)benzamide]
≥ 8.52 | ≥ 8.52 | 7.52 to 8.52 | 7.52 to 8.52 | *** (ratio≥10) | O=C(NCCN1CCOCC1)c1cccc(CNc2ncc(-c3ccncc3)c3c2CCO3)c1 [Example 28, N-(2-morpholinoethyl)-3-(((7-(pyridin-4-yl)-2,3-dihydrofuro[3,2-c]pyridin-4-yl)amino)methyl)benzamide]
≥ 8.52 | ≥ 8.52 | 7.52 to 8.52 | 7.52 to 8.52 | *** (ratio≥10) | O=C(NCCN1CCCCC1)c1cccc(CNc2ncc(-c3ccncc3)c3c2CCO3)c1 [Example 30, N-(2-(piperidin-1-yl)ethyl)-3-(((7-(pyridin-4-yl)-2,3-dihydrofuro[3,2-c]pyridin-4-yl)amino)methyl)benzamide]
≥ 8.52 | ≥ 8.52 | ≥ 8.52 | ≥ 8.52 | *** (ratio≥10) | CN1CCN(CCCC(=O)Nc2cccc(CNc3ncc(-c4ccncc4)c4c3CCO4)c2)CC1 [Example 35, 4-(4-methylpiperazin-1-yl)-N-(3-(((7-(pyridin-4-yl)-2,3-dihydrofuro[3,2-c]pyridin-4-yl)amino)methyl)phenyl)butanamide]
≥ 8.52 | ≥ 8.52 |  |  |  | CN(C)CCn1ccc2cc(C(=O)Nc3cccc(CNc4ncc(-c5ccncc5)c5c4CCO5)c3)ccc21 [Example 39, 1-(2-(dimethylamino)ethyl)-N-(3-(((7-(pyridin-4-yl)-2,3-dihydrofuro[3,2-c]pyridin-4-yl)amino)methyl)phenyl)-1H-indole-5-carboxamide]
≥ 8.52 | ≥ 8.52 |  |  |  | O=C(Nc1cccc(CNc2ncc(-c3ccncc3)c3c2CCO3)c1)c1ccc2c(c1)CCNC2 [Example 40, N-(3-(((7-(pyridin-4-yl)-2,3-dihydrofuro[3,2-c]pyridin-4-yl)amino)methyl)phenyl)-1,2,3,4-tetrahydroisoquinoline-6-carboxamide]
≥ 8.52 | ≥ 8.52 |  |  |  | CN1CCc2nc(NC(=O)c3cccc(CNc4ncc(-c5ccnc(N)c5)c5c4CCO5)c3)sc2C1 [Example 49, 3-(((7-(2-aminopyridin-4-yl)-2,3-dihydrofuro[3,2-c]pyridin-4-yl)amino)methyl)-N-(5-methyl-4,5,6,7-tetrahydrothiazolo[5,4-c]pyridin-2-yl)benzamide]
7.52 to 8.52 | 7.52 to 8.52 |  |  |  | CN(C)Cc1nc(C(=O)Nc2cccc(CNc3ncc(-c4ccncc4)c4c3CCO4)c2)cs1 [Example 53, 2-((dimethylamino)methyl)-N-(3-(((7-(pyridin-4-yl)-2,3-dihydrofuro[3,2-c]pyridin-4-yl)amino)methyl)phenyl)thiazole-4-carboxamide]
